# Reference: US20260193255A1, “7-AZAINDOLE COMPOUNDS, PREPARATION METHOD THEREFOR, AND USE THEREOF” (Fudan University, priority 2022, published 2026)
# Columns and labels:
# [1] = test system: C26 tumor cancer cachexia model, BALB/c mice; assay: Cancer cachexia animal model, compounds 3 and 10 (C26 tumor, BALB/c mice, 10 mg/kg ip); format: in vivo, mouse; conditions: 10 mg/kg ip daily; for Cross-sectional area of gastrocnemius fibers: H&E sections; for Muscle grasp force: p<0.05
# Procedure: C26 cells were inoculated in T75 flasks. The culture system was 1640 medium containing 10% FBS with 1% penicillin-streptomycin. The flasks were placed in a 5% CO2, 37° C. environment for expansion culture. The cells were collected by centrifugation at 1000 rpm for 3 mins, and the culture medium was washed away with ice-cold PBS buffer, and a cell suspension of 10 million/ml was prepared. The cell suspension was inoculated into the left and right armpits of BALB/c mice at a concentration of 1 million for tumor development. When the tumor volume increased to 1000 mm^3, the tumor was removed and homogenized with 3 ml of ice saline/g to obtain a tumor tissue suspension. The mice to be inoculated were divided into groups according to their weight, and the cell suspension was inoculated into the left armpit of BALB/c mice at an inoculation volume of 100 μl per mouse. Treatment was started from the day after inoculation. Compounds 3 and 10 were dissolved in 3% DMSO, 2% Solutol and 95% saline in sequence to form a uniform solution with the required concentration. The solution was prepared and used daily. The dose was 10 mg/kg and the compound was administered by intraperitoneal injection (ip). The body weight, temperature, tumor size and food intake of mice were monitored daily. […] In the middle stage of the experiment, the weight of the mice in the model group began to decrease, which was considered to have entered the mid-cachexia stage. When the tumor volume of the mice in the model group reached 2.0× 103 mm^3 or their body weight decreased by 10%, they were considered to have entered the late-cachexia stage. The muscle grasp force of the mice's forelimbs was tested at these three stages. At the end of the experiment, the mice were killed by cervical dislocation and the gastrocnemius, tibialis anterior, right hind limb and tumor samples were obtained, and the sample weights were measured. Gastrocnemius tissue of appropriate size was obtained, and H&E stained tissue sections were prepared through processes such as fixation, embedding, slicing, staining. At least 10 fields of view were randomly selected for slices of different groups for photographing, and the cross-sectional areas of all muscle fibers in the photographs were measured and statistically analyzed.
# The method for detecting muscle grasp force was as follows: The muscle grasp force of mice was tested on the 3rd day (pre-cachexia stage), the 11th day (mid-cachexia stage) and the 16th day (late-cachexia stage) of the experiment. The mouse was steadily placed on the YLS-13A Mouse and Rat Grasp Force Tester by using the right hand, so that its forelimbs could tightly grasp the gripping disk, and the gripping disk was stabilized by using the left hand moving forward. When the left hand slowly released the gripping disk, the right hand immediately and slowly pulled the mouse's tail backwards until its forelimbs were separated from the gripping disk. The test was repeated 8 times for each mouse, and the mean value of the 8 measurements was used as the skeletal muscle strength index of each mouse.
# ActRIIB = ActRIIB (Homo sapiens, UniProt Q13705); assay: ActRIIB inhibitory activity, ADP-Glo assay kit; format: biochemical; conditions: ATP 25 μM, substrate 0.1 mg/mL, ActRIIB 20.0 ng/μL
# Procedure: The ATP and substrate concentrations recommended by the ADP-Glo™ assay kit were used, which were 25 μM and 0.1 mg/mL, respectively, and a series of isocratic final ActRIIB concentrations were set up, which were 0, 0.47, 0.94, 1.88, 3.75, 7.5, 15, 30, and 60 ng/μL, respectively. According to the […] values obtained in the experiment, an ActRIIB concentration titration curve was drawn. The ActRIIB concentrations corresponding to the ratio of the signal value to the background value (i.e., signal-to-background ratio, SBR) in the range of 5-10 times are suitable for screening compounds for inhibition of ActRIIB activity. From the ActRIIB concentration titration curve, the final ActRIIB concentrations corresponding to SB5 and SB10 were calculated to be 14.9 and 23.7 ng/μL, respectively. Finally, a final concentration of 20.0 ng/μL was selected as the experimental concentration for screening compounds for their inhibitory activity against ActRIIB. The inhibitory efficiency of 7-azaindole compounds on ActRIIB was detected at concentrations of 0.1, 1, 10, and 100 nM, respectively.
# mouse myoblasts (C2C12) = assay: Atrophy of mouse myoblasts (C2C12) induced by C26 cell supernatant, myotube diameter by HE staining; format: cell-based; conditions: Mus musculus, 48 hours treatment, C26 supernatant-induced C2C12 myotubes, read-out: Myotube atrophy reversal rate
# Procedure: C2C12 cells were inoculated in 24-well plates. The culture system was high-glucose DMEM medium containing 10% FBS with 1% penicillin-streptomycin. The plates were placed in a 5% CO2, 37° C. environment. When the cell growth density reached 50%-60%, the culture system was replaced with high-glucose DMEM culture medium containing 2% HS with 1% penicillin-streptomycin. Fresh 2% HS differentiation medium was replaced every 48 hours, and the cells were differentiated into mature cells on the 5th or 6th day. Additionally, C26 cells were inoculated in T75 flasks. The culture system was high-glucose DMEM medium containing 10% FBS with 1% penicillin-streptomycin. The flasks were placed in a 5% CO2, 37° C. environment. When subculturing, the cells were subcultured at 6 million cells/flask. After culturing in 20 ml of culture medium for 48 hours, the supernatant was collected and centrifuged at 1000 rpm for 3 mins. The supernatant was collected and centrifuged at 4000 rpm for 10 mins to obtain the C26 supernatant. The C26 supernatant and 2% HS differentiation solution were mixed at a ratio of 1:1 (volume ratio) as the muscle atrophy induction solution. Except for the control group in which 2% HS differentiation solution was added, for the other groups, an equivalent amount of muscular atrophy induction solution was added. One group was used as the model group, and the other groups were used as the treatment and experimental groups.
# The diameter of myotubes after differentiation of mouse myoblasts (C2C12) was evaluated by using the diameter measurement method. The method for measuring the diameter of myotubes was as follows: after 48 hours of treatment, the myotubes were fixed with a fixative (anhydrous ethanol: formaldehyde: glacial acetic acid (volume ratio)=20:2:1) for more than 1 h and stained. The staining method used in the experiment is hematoxylin-eosin staining, referred to as HE staining for short. Hematoxylin stain is alkaline and positively charged, and it can easily bind to the negatively charged and acidic deoxyribonucleic acid (DNA) in the cell nucleus through ionic bonds to stain it blue; eosin is an acidic dye that dissociates into negatively charged anions in water, and it can easily bind to the positively charged amino groups of proteins in the cytoplasm to stain it red. The stained cells were placed under a high-power microscope to take pictures (magnification: 200 times), and the diameter of myotube cells was statistically analyzed using image J software. The muscle atrophy reversal rate was calculated according to the following formula: Muscle atrophy reversal rate=(average value of myotubes in the treatment group-average value of myotubes in the model group)/(average value of myotubes in the control group-average value of myotubes in the model group)×100%
# Chain of ActRIIB (Q13705 19-512): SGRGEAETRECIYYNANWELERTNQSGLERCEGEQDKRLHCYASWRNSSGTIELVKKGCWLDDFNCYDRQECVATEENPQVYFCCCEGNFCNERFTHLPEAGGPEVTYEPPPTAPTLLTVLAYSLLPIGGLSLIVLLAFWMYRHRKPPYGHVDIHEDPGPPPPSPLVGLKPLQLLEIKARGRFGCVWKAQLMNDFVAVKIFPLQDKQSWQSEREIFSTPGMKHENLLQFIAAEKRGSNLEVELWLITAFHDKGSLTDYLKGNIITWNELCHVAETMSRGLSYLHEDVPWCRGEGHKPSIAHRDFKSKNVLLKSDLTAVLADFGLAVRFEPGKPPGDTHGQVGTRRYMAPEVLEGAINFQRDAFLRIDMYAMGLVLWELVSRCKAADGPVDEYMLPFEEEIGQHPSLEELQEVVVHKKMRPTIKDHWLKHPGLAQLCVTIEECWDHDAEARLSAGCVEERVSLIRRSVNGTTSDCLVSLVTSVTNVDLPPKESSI
Compound,IC50 (ActRIIB) [nM],inhibition at 2.5 µM (mouse myoblasts (C2C12)) [%],inhibition at 5 µM (mouse myoblasts (C2C12)) [%],also measured
"CN1CCN(c2ccc(-c3cnc4[nH]cc(-c5ccncc5)c4c3)cc2)CC1 [Compound 24, 5-[4-(4-methylpiperazin-1-yl)phenyl]-3-(pyridin-4-yl)-1H-pyrrolo[2,3-b]pyridine]",59.3,,76.7,
"CN1CCN(c2ccc(-c3cnc4[nH]cc(-c5cccnc5)c4c3)cc2)CC1 [Compound 22, 5-[4-(4-methylpiperazin-1-yl)phenyl]-3-(pyridin-3-yl)-1H-pyrrolo[2,3-b]pyridine]",87.3,,75.4,
"CN1CCN(c2ccc(-c3cnc4[nH]cc(-c5cnn(C)c5)c4c3)cc2)CC1 [Compound 9, 5-[4-(4-methylpiperazin-1-yl)phenyl]-3-(1-methylpyrazol-4-yl)-1H-pyrrolo[2,3-b]pyridine]",70.8,61.1,,
"CN1CCN(c2ccc(-c3cnc4[nH]cc(-c5cncnc5)c4c3)cc2)CC1 [Compound 23, 5-[4-(4-methylpiperazin-1-yl)phenyl]-3-(pyrimidin-5-yl)-1H-pyrrolo[2,3-b]pyridine]",4.8,,97.9,

# The next compounds have a lower IC50 (ActRIIB) than those just listed; values first:
IC50 (ActRIIB) [nM],Compound,inhibition at 2.5 µM (mouse myoblasts (C2C12)) [%],inhibition at 5 µM (mouse myoblasts (C2C12)) [%],also measured
4.4,"CCn1nccc1-c1c[nH]c2ncc(-c3ccc(N4CCN(C)CC4)cc3)cc12 [Compound 7, 3-(2-ethylpyrazol-3-yl)-5-[4-(4-methylpiperazin-1-yl)phenyl]-1H-pyrrolo[2,3-b]pyridine]",,,inhibition at 10 µM (mouse myoblasts (C2C12)): 77.1%
4,"c1cc(-c2c[nH]c3ncc(-c4ccc(OCCN5CCOCC5)cc4)cc23)n[nH]1 [Compound 10, 3-(1H-pyrazol-3-yl)-5-(4-[[2-(1,4-oxazacyclohexan-4-yl)ethyl]oxy]phenyl)-1H-pyrrolo[2,3-b]pyridine]",58.9,100,"Average accumulative food intake vs C26 tumor model group [1]: slightly higher than that in the C26 tumor model group; Gastrocnemius atrophy (muscle mass) [1]: cannot significantly alleviate the gastrocnemius atrophy in cachectic mice; Right hind limb weight (skeletal muscle atrophy) [1]: improve skeletal muscle atrophy in cachectic mice to a certain extent; Tibialis anterior atrophy (muscle mass) [1]: cannot significantly alleviate the tibialis anterior atrophy in cachectic mice; Tumor volume vs C26 tumor model group [1]: slightly reduced compared with the C26 tumor model group, but there was no significant difference; Weight loss (tumor-bearing and tumor-free body weight) vs C26 tumor model group [1]: significantly alleviate the weight loss of mice; Cross-sectional area of gastrocnemius fibers [1]: significantly alleviate the reduction in the cross-sectional area of the gastrocnemius in cachectic mice; Muscle grasp force [1]: significantly enhance the muscle grasp force of cachexia mice; inhibition at 1.25 µM (mouse myoblasts (C2C12); 1.25 μM): 42.4%"
1.4,"CN1CCN(c2ccc(-c3cnc4[nH]cc(-c5ccnn5C)c4c3)cc2)CC1 [Compound 6, 5-[4-(4-methylpiperazin-1-yl)phenyl]-3-(2-methylpyrazol-3-yl)-1H-pyrrolo[2,3-b]pyridine]",45.9,79.1,inhibition at 10 µM (mouse myoblasts (C2C12)): 99.8%
1.2,"CN1CCN(c2ccc(-c3cnc4[nH]cc(-c5ccccc5)c4c3)cc2)CC1 [Compound 25, 5-[4-(4-methylpiperazin-1-yl)phenyl]-3-phenyl-1H-pyrrolo[2,3-b]pyridine]",,77.1,
1.1,"CN1CCN(c2ccc(-c3cnc4[nH]cc(-c5ccc6[nH]ccc6c5)c4c3)cc2)CC1 [Compound 3, 3-(1H-indol-5-yl)-5-[4-(4-methylpiperazin-1-yl)phenyl]-1H-pyrrolo[2,3-b]pyridine]",90.9,,"Average accumulative food intake vs C26 tumor model group [1]: slightly higher than that in the C26 tumor model group; Gastrocnemius atrophy (muscle mass) [1]: cannot significantly alleviate the gastrocnemius atrophy in cachectic mice; Right hind limb weight (skeletal muscle atrophy) [1]: improve skeletal muscle atrophy in cachectic mice to a certain extent; Tibialis anterior atrophy (muscle mass) [1]: cannot significantly alleviate the tibialis anterior atrophy in cachectic mice; Tumor volume vs C26 tumor model group [1]: slightly reduced compared with the C26 tumor model group, but there was no significant difference; Weight loss (tumor-bearing and tumor-free body weight) vs C26 tumor model group [1]: alleviate the weight loss of mice to some extent; Cross-sectional area of gastrocnemius fibers [1]: significantly alleviate the reduction in the cross-sectional area of the gastrocnemius in cachectic mice; Muscle grasp force [1]: significantly enhance the muscle grasp force of cachexia mice"
